Data reported in patent publication US12459931B2, “Benzothiophene derivative regulator, preparation method therefor and use thereof” (Shanghai Hansoh Biomedical Co., Ltd., priority 2019, dated 2025).

Tests used:
[1] = molecular target: Human Dopamine D3 Receptor (Homo sapiens (Human), UniProt P35462); test: Radioligand-receptor binding assay, dopamine D3 receptor ([3H]-methylspiperone); conditions: [3H]-methylspiperone 0.5 nM, human D3 receptor membrane
Description: Determination of the Binding Ability of the Compounds of the Present Invention to Dopamine D3 Receptor
The objective of this test example is to determine the affinity of the compounds for dopamine D3 receptor.
Assay buffer: 50 mM Tris-HCl pH 7.4, 10 mM MgCl2; wash solution: 50 mM Tris-HCl pH 7.4, stored at 4° C.; 0.5% PEI solution: 0.5 g PEI dissolve in 100 mL ddH2O, 4° C. storage of spare.
(§1) 5 μL of the test compounds (0.005 nM to 100 nM, 10 concentrations in total) and 100 μL of buffer were added to a 96-well assay plate. 1 μL of cell membrane and 300 μL of buffer were added to each well, and the plate was shaken at 600 rpm for 5 min. A mixed solution of 100 μL of buffer and [^3H]-methylspiperone (the final concentration was 0.5 nM) was added to each well. The plate was shaken at 600 rpm for 5 min, and incubated at 27° C. for 30 min. The […]-96 GF/B filter plate pre-incubated with 0.5% PEI for 1 h was washed twice with the buffer (1 mL/well). The cell membrane suspension was added to the […]-96 GF/B filter plate, washed 4 times, and incubated at 55° C. for 10 min. 40 μL of ULTIMA GOLD was added to each well, and liquid scintillation counting was carried out.
(§2) The CPM (Counts per minute) values were determined by TopCount. […] The 10 concentrations of the compound were from 100 nM to 0.005 nM after 3-fold dilution of the reaction system. The percent inhibition rate and ten-point concentration data were fitted to the parametric nonlinear logistic equation by using GraphPad prism to calculate the IC50 values of the compound.

5-HT2A receptor = 5-HT2A receptor (Homo sapiens (Human), UniProt P28223); test: Radioligand-receptor binding assay, 5-HT2A receptor ([3H]-Ketanserin); conditions: [3H]-Ketanserin 2 nM, human 5-HT2A receptor membrane; read-out: 5HT-2A binding activity IC50
Description: Determination of the Binding Ability of the Compounds of the Present Invention to 5-HT2A Receptor
The objective of this test example is to determine the affinity of the compounds for 5-HT2A receptor.
Assay buffer: 50 mM Tris-HCl pH 7.4, 4 mM CaCl2); wash solution: 50 mM Tris-HCl pH 7.4, stored at 4° C.; 0.5% PEI solution: 0.5 g PEI dissolve in 100 mL ddH2O, 4° C. storage of spare.
as §1, with “plate. 1.5” for “plate. 1”, “300 L” for “300 μL”, “each well. The” for “each well, and the”, “and [^3H]-Ketanserin” for “and [^3H]-methylspiperone”, “was 2” for “was 0.5”
as §2

Human Dopamine D3 Receptor, sequence (P35462 whole entry): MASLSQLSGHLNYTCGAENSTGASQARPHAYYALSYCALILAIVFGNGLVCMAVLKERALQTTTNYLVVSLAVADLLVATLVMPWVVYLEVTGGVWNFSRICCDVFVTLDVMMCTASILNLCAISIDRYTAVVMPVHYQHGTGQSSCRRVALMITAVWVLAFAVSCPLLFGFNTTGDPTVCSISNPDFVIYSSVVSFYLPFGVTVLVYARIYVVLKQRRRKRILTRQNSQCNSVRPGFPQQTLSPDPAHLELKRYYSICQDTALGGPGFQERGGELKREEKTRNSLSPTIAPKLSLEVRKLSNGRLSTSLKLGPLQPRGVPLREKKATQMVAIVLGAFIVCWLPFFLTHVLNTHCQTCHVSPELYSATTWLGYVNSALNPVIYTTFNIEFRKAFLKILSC
5-HT2A receptor, sequence (P28223 whole entry): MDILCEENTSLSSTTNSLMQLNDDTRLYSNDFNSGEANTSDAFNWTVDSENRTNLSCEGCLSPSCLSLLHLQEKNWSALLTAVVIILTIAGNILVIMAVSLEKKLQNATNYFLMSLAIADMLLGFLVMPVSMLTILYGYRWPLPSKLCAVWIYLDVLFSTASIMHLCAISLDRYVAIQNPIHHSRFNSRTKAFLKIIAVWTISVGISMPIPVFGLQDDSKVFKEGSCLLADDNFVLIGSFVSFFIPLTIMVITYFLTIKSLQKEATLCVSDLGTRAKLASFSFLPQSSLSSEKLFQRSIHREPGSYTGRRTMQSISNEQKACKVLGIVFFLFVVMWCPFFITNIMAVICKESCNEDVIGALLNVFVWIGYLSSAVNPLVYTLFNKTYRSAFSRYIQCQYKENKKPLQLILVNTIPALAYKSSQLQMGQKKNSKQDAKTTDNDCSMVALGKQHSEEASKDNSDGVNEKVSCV

SMILES	IC50 [1]	IC50 (5-HT2A receptor)
Fc1cnc(N[C@H]2CC[C@H](CCN3CCN(c4cccc5sccc45)CC3)CC2)nc1 [Example 49, N-(Trans-4-(2-(4-(benzo[b]thiophen-4-yl)piperazin-1-yl)ethyl)cyclohexyl)-5-fluoropyrimidin-2-amine]	2.43 nM	0.34 nM
COCC(=O)N[C@H]1CC[C@H](CCN2CCN(c3cccc4sccc34)CC2)CC1 [Example 47, N-(Trans-4-(2-(4-(benzo[b]thiophen-4-yl)piperazin-1-yl)ethyl)cyclohexyl)-2-methoxyacetamide]	0.47 nM	0.96 nM
CC1(O)CN(C(=O)N[C@H]2CC[C@H](CCN3CCN(c4cccc5sccc45)CC3)CC2)C1 [Example 3, N-(Trans-4-(2-(4-(benzo[b]thiophen-4-yl)piperazin-1-yl)ethyl)cyclohexyl)-3-hydroxy-3-methylazetidine-1-carboxamide]	1.59 nM	
CON(C)C(=O)N[C@H]1CC[C@H](CCN2CCN(c3cccc4sccc34)CC2)CC1 [Example 50, 3-(Trans-4-(2-(4-(benzo[b]thiophen-4-yl)piperazin-1-yl)ethyl)cyclohexyl)-1-methoxy-1-methylurea]	1.29 nM	2.16 nM
CCNC(=O)N[C@H]1CC[C@](F)(CCN2CCN(c3cccc4sccc34)CC2)CC1 [Example 16, 1-(Cis-4-(2-(4-(benzo[b]thiophen-4-yl)piperazin-1-yl)ethyl)-4-fluorocyclohexyl)-3-ethylurea]	0.57 nM	2.07 nM
C[C@@H]1CN(c2cccc3sccc23)CCN1CC[C@H]1CC[C@H](Nc2ncc(C#N)cn2)CC1 [Example 44, 2-((Trans-4-(2-((R)-4-(benzo[b]thiophen-4-yl)-2-methylpiperazin-1-yl)ethyl)cyclohexyl)amino)pyrimidine-5-carbonitrile]	1.58 nM	2.59 nM
CN(C)C(=O)N[C@H]1CC[C@](F)(CCN2CCN(c3cccc4sccc34)CC2)CC1 [Example 15, 3-(Cis-4-(2-(4-(benzo[b]thiophen-4-yl)piperazin-1-yl)ethyl)-4-fluorocyclohexyl)-1,1-dimethylurea]	4.25 nM	
O=C(NC1CCC(CCN2CCN(c3cccc4sccc34)CC2)CC1F)c1ccco1 (centres unmarked) [Example 51, N-(4-(2-(4-(Benzo[b]thiophen-4-yl)piperazin-1-yl)ethyl)-2-fluorocyclohexyl)furan-2-carboxamide]	0.76 nM	0.9 nM
Cc1ccc(C(=O)N[C@H]2CC[C@H](CCN3CCN(c4cccc5sccc45)CC3)CC2)o1 [Example 46, N-(Trans-4-(2-(4-(benzo[b]thiophen-4-yl)piperazin-1-yl)ethyl)cyclohexyl)-5-methylfuran-2-carboxamide]	0.6 nM	0.91 nM
CN(C)C(=O)NC1CCC(CCN2CCN(c3cccc4sccc34)CC2)CC1F (centres unmarked) [Example 23, 3-(4-(2-(4-(Benzo[b]thiophen-4-yl)piperazin-1-yl)ethyl)-2-fluorocyclohexyl)-1,1-dimethylurea]	2.69 nM	6.45 nM
O=C(N[C@H]1CC[C@H](CCN2CCN(c3cccc4sccc34)CC2)CC1)N1CC(F)(F)C1 [Example 2, N-(Trans-4-(2-(4-(benzo[b]thiophen-4-yl)piperazin-1-yl)ethyl)cyclohexyl)-3,3-difluoro azetidine-1-carboxamide]	0.76 nM	3.4 nM
O=C(N[C@H]1CC[C@H](CCN2CCN(c3cccc4sccc34)CC2)CC1)c1ccco1 [Example 45, N-(Trans-4-(2-(4-(benzo[b]thiophen-4-yl)piperazin-1-yl)ethyl)cyclohexyl)furan-2-carboxamide]	0.12 nM	0.63 nM
CC(C)(O)CC(=O)N[C@H]1CC[C@H](CCN2CCN(c3cccc4sccc34)CC2)CC1 [Example 48, N-(Trans-4-(2-(4-(benzo[b]thiophen-4-yl)piperazin-1-yl)ethyl)cyclohexyl)-3-hydroxy-3-methylbutanamide]	0.36 nM	0.83 nM
COC1(C)CN(C(=O)N[C@H]2CC[C@H](CCN3CCN(c4cccc5sccc45)CC3)CC2)C1 [Example 4, N-(Trans-4-(2-(4-(benzo[b]thiophen-4-yl)piperazin-1-yl)ethyl)cyclohexyl)-3-methoxy-3-methylazetidine-1-carboxamide]	1.52 nM	0.26 nM
